These are literature values, as cited in patent publication US20090130187A1, “Covalent Conjugates of Cotton and Substitutes (Viscose, Modal Cotton) with Bioactive Substances Having Antiseptic, Sanitizing, Acaricidal and Insect Repellent Activity, and a Method for Obtaining Them” (priority 2006, published 2009).

The subject of this data set is rat.

With `Clc1nc(Cl)nc(Cl)n1` [2,4,6-tri-chloro 1,3,5 triazine], the “LD 50 (rat)” value is listed as 930 mg/kg.
